Laboratory results as given in patent US20060117411A1, “Enhancing plant pathogen resistance via increasing BiP levels” (priority 1998, published 2006).

Legend:
[1] = test system: α-amylase synthesis in tobacco protoplasts; experiment: Transient expression in tobacco protoplasts (pNL200), α-amylase activity; format: cell-based, Nicotiana tabacum; conditions: tunicamycin 20 μg/mL, 20 hr
Description: We have established a model system based on the comparison of protein biosynthesis in the cytosol and on the rough ER using transient expression. A plasmid was constructed (pNL200, FIG. 12A) containing two genes, one encoding the secreted barley α-amylase (Rogers, 1985) and the other encoding the cytosolic marker β-glucuronidase (GUS; Jefferson et al., 1987). α-Amylase was used to measure secretory protein biosynthesis, and GUS was used to control for transfection efficiency and overall cell viability. We compared cells under normal culture conditions with cells subjected to ER stress by treatment with tunicamycin. […] Since α-amylase is not glycosylated, tunicamycin should not have a direct effect on this protein. The tunicamycin effect is protein-specific and not dependent on the promoter used. […]
Tobacco leaf protoplasts (from transformed or untransformed plants) were prepared, and electroporation experiments were performed as previously described (Denecke and Vitale, 1995), with minor modifications to the electroporation conditions. […] After 24 or 48 hr, the protoplasts were analysed by enzymatic assay or by protein gel blotting. […]
α-Amylase activity was measured with a kit (Megazyme, Australia). […] The absorbance was measured at a wavelength of 405 nm, with a microtiter plate reader against a blank containing stop buffer alone. […]

β-1,3-glucanase mRNA = experiment: Tunicamycin treatment of tobacco protoplasts, Northern blot of β-1,3-glucanase; format: cell-based, Nicotiana tabacum; conditions: tunicamycin 20 μg/mL
Procedure: To compare the CDE- and UPR-mediated induction of BiP, we wanted to test if both stimuli are additive. […] This is not surprising as protoplasts are prepared with CDEs. These protoplasts were then treated with tunicanycin, to superimpose the UPR onto the CDE response. […] The additional ER stress could trap BiP in malfolded protein complexes, thus making it unavailable to promote PR protein synthesis on the rough ER.
During prolonged incubation times, transcript levels encoding secretory proteins recover to almost normal (initial) values again. Identical results were obtained with other transcripts encoding the secretory proteins acidic chitinase and basic chitinase present in tobacco protoplasts, showing that the effect is not restricted to β-1,3-glucanase (data not shown).
Protoplasts RNAs were extracted as described by Jones et al., (1985). Leaves were ground in frozen liquid nitrogen and transferred to NTES buffer (0.1 M NaCl, 10 mM Tris pH 7.5, 1 mM EDTA, 1% SDS). Protoplasts samples were frozen in liquid nitrogen and thawed in NTES buffer. RNA was extracted after adding an equal volume of phenol/chloroform. Ethanol precipitation was carried out after incubation at −20° C. for 16 hours. The pellet was resuspended and RNA was selectively precipitated with LiCl (2M LiCl) for 2 hours on ice. The pellet was washed with 70% ethanol and resuspended in diethyl pyrocarbonate-treated water. […]

## tunicamycin
[1]
  total α-amylase activity in the cell suspension: greatly reduced
β-1,3-glucanase mRNA; protoplasts
  transcript level of β-1,3-glucanase during UPR-induced BiP transcription (time course): rapidly decreases
β-1,3-glucanase mRNA; 2.5 hrs
  β1,3-glucanase expression in protoplasts: inhibited
